pIC50, pKd: −log10 of the molar value. Like-named read-outs stand apart in the source and are kept apart here. Square brackets hold non-standard residues; d marks the D form. Peptide text beside a SMILES is read from it. * marks the point of attachment. X1 = CC(=O)N[C@@H]1[C@@H](O[C@@H]2O[C@H](CO)[C@H](O)[C@H](O)[C@H]2O)[C@@H](O)[C@@H](CO[C@@H]2O[C@H](CO)[C@@H](O[C@@H]3O[C@H](CO)[C@H](O)[C@H](O[C@]4(C(=O)O)C[C@H](O)[C@@H](NC(C)=O)[C@H]([C@H](O)[C@H](O)CO)O4)[C@H]3O)[C@H](O[C@@H]3O[C@@H](C)[C@@H](O)[C@@H](O)[C@@H]3O)[C@H]2NC(C)=O)O[C@@H]1*; Phe(4-CH2SO3H) = N[C@@H](Cc1ccc(CS(=O)(=O)O)cc1)C(=O)O; Mca = COc1ccc2c(CC(=O)*)cc(=O)oc2c1

Results on one molecule are retold here after patent US10253071B2, “Selectin inhibitors, composition, and uses related thereto” (Beth Israel Deaconess Medical Center, Inc., priority 2014, dated 2019).

For assay [1], the system named is P-selectin (recombinant Ig chimera). In words: Microarray binding screen of glycopeptide mimics, P-selectin. Also on record: species or system human and mouse. As to conditions: selectin Ig chimeras 5-20 μg/mL, Alexa-488 anti-human IgG. As for the experimental part:
(§1) Bound peptides were detected using Alexa-488 labeled anti-human IgG antibody (5 μg/mL). Three lectins RCA-1, AAL, and PNA were used to confirm the sequence of enzymatic steps. Monoclonal antibodies CHO131, PSG2 antibody and PL-1 were used to confirm the presence of SLex, tyrosine sulfates, and the peptide sequence, respectively. Biacore binding analysis to human P-selectin with observed rate constants for (D) GSnP-6, kon 3.1×10^5 M^−1s^−1, koff 6.9×10^3 M^−1s^−; GSn2P-6, kon6.4×10^5 M^−1s^−1, koff 6.8×10^3 M^−1s. Biacore binding analysis to mouse P-selectin with observed rate constants for (E) GsnP-6, kon 4.9×10^4 M^−1s^−1, koff 8.0×10^3 M^−1s^−; GSn2P-6 kon 5.3×10^4 M^−1s^−1, koff 9.0×10^3 M^−1s. (F) Temperature- and pH-dependent stability studies of GSnP-6.
Binding affinities of PSGL-1 mimics towards selectins was initially screened using a microarray in which glycosulfopeptides and glycan standards (Sialyl Le^x, NA2, NA2,3, NA2,6 and LNnT) were printed on a NHS-activated glass slide. The slide was then incubated with recombinant Ig chimeras of P-, L-, or E-selectin (5-20 μg/mL) followed by Alexa-488 labeled anti-human IgG antibody (5 μg/mL). […] Binding of glycopeptides mimics to selectins was […] dependent and inhibited by EDTA.

For the next assay, the target named is T1, mouse P-selectin (Mus musculus, UniProt Q01102).
T1 sequence (Q01102 42-768): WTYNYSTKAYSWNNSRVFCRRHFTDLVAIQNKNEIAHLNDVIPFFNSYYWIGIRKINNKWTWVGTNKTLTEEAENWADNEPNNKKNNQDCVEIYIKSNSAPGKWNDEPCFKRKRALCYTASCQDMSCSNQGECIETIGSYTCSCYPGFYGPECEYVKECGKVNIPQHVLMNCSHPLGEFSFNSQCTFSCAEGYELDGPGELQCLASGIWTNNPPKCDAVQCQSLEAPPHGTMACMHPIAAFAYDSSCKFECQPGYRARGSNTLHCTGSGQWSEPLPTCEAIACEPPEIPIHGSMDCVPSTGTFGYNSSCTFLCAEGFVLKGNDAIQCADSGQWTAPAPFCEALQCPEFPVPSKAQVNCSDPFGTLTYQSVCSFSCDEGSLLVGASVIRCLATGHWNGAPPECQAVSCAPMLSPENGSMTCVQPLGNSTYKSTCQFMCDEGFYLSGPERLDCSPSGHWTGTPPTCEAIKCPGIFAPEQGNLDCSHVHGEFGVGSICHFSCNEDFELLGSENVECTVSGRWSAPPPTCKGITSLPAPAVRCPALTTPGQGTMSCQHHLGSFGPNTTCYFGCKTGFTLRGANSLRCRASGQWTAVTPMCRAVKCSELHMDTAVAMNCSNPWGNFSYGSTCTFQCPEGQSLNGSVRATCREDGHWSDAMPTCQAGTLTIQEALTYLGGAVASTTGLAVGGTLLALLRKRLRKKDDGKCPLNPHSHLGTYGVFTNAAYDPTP
The assay can be described thus: Biacore binding assay, mouse P-selectin. As for the experimental part: as §1
(§2) Dissociation constants (Kd) were determined using a Biacore binding assay after initial capture of biotinylated GS(n)P-6 onto streptavidin-coated sensor chips followed by flow through of P-, L- or E-sel-Ig (2.5 to 60 μg/mL). […] The Kd of GSnP-6 to murine P-selectin was ˜9-fold lower than to human P-selectin.
A general note: Surface plasmon resonance follows binding to a sensor surface in real time, without labels.

The target of a further assay is T2, human P-selectin (Homo sapiens, UniProt P16109).
T2 sequence (P16109 42-830): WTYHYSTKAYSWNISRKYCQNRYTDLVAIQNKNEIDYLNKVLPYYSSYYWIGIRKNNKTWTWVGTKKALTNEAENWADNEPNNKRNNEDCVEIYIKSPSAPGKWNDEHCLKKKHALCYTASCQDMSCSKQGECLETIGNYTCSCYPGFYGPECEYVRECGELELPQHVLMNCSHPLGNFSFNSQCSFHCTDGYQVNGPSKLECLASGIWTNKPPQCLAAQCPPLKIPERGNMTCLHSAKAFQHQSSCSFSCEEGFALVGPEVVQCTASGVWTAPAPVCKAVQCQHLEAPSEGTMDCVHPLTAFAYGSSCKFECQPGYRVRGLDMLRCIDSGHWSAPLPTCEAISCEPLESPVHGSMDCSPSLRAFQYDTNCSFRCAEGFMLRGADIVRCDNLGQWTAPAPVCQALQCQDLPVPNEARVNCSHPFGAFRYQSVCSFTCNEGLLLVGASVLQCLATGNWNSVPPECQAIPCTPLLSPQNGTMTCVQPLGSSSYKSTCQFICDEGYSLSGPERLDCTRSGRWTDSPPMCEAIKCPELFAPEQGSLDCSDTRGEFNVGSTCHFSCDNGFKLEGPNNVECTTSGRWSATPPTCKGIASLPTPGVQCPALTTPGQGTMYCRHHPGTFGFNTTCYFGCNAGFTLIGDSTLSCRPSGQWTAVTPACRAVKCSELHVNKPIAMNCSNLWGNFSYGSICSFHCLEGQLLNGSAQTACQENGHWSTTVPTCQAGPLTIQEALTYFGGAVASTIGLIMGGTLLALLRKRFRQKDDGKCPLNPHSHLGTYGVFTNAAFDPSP
The assay can be described thus: Biacore binding assay, human P-selectin. On the procedure:
as §1, §2

Assay [2] addresses T3, recombinant human P-selectin Fc chimera (Homo sapiens, UniProt P16109).
T3 sequence (P16109 42-830): T2 sequence (P16109 42-830)
In words: Flow cytometry, inhibition of human P-selectin Fc chimera binding to human leukocytes. The assay is classed as cell-based. As for the experimental part:
(§3) Flow cytometry was used to characterize the ability of GSnP-6 to block binding of selectin-IgG chimeras to murine and human leukocytes. Recombinant mouse P- or L-selectin Fc chimera (2 μg/mL) was incubated with murine neutrophils and GSnP-6 (0-30 μM). Likewise, recombinant human P-selectin or L-selectin Fc chimera were incubated with human peripheral blood neutrophils and monocytes, as well as the human U937 cell line in the presence of GSnP-6 (0-30 μM). Binding of selectin-IgG chimeras was detected with PE-conjugated anti-IgG antibody, quantified as mean fluorescent intensity, and plotted as percent inhibition. Specificity was confirmed with selectin-specific blocking antibodies.

The target in assay [3] is T4, Recombinant mouse P-selectin Fc chimera (Mus musculus, UniProt Q01102).
T4 sequence (Q01102 42-768): T1 sequence (Q01102 42-768)
In words: Flow cytometry, inhibition of mouse P-selectin Fc chimera binding to murine neutrophils. Conditions: murine PMN; chimera 2 μg/mL; read-out: IC50, P-selectin dependent interactions, murine PMN. Format: cell-based. As for the experimental part: as §3

As a reminder, the koff is the first-order rate constant of dissociation. What is called kon is a measure of how fast the partners come together. The pKd is the Kd on a negative log10 scale, so that one unit is a factor of ten. Broadly, the pIC50 is the negative decadic logarithm of the IC50, by convention in mol/L. Consider `COc1ccc2c(CC(=O)NCCCC[C@H](N)C(=O)N[C@@H](CCC(=O)O)C(=O)N[C@@H](Cc3ccc(CS(=O)(=O)O)cc3)C(=O)N[C@@H](CCC(=O)O)C(=O)N[C@@H](Cc3ccc(CS(=O)(=O)O)cc3)C(=O)N[C@@H](CC(C)C)C(=O)N[C@@H](CC(=O)O)C(=O)N[C@@H](Cc3ccc(CS(=O)(=O)O)cc3)C(=O)N[C@@H](CC(=O)O)C(=O)N[C@@H](Cc3ccccc3)C(=O)N[C@@H](CC(C)C)C(=O)N3CCC[C@H]3C(=O)N[C@@H](CCC(=O)O)C(=O)N[C@H](C(=O)N[C@@H](CCC(=O)O)C(=O)N3CCC[C@H]3C(=O)N[C@@H](CC(C)C)C(=O)O)[C@@H](C)O[C@H]3O[C@H](CO[C@@H]4O[C@H](CO)[C@@H](O[C@@H]5O[C@H](CO)[C@H](O)[C@H](O[C@]6(C(=O)O)C[C@H](O)[C@@H](NC(C)=O)[C@H]([C@H](O)[C@H](O)CO)O6)[C@H]5O)[C@H](O[C@@H]5O[C@@H](C)[C@@H](O)[C@@H](O)[C@@H]5O)[C@H]4NC(C)=O)[C@H](O)[C@H](O[C@@H]4O[C@H](CO)[C@H](O)[C@H](O)[C@H]4O)[C@H]3NC(C)=O)cc(=O)oc2c1` [GSnP-6] (H-K(Mca)E[Phe(4-CH2SO3H)]E[Phe(4-CH2SO3H)]LD[Phe(4-CH2SO3H)]DFLPET(X1)EPL-OH), for which the “binding to P-selectin compared with E- or L-selectin” value in assay [1] is given as “bound to P-selectin more strongly than to E- or L-selectin”. The “Kd to murine P-selectin relative to human P-selectin” value at mouse P-selectin (printed as fold lower than to human P-selectin) was roughly 9 fold. Moreover, the koff on mouse P-selectin (read-out: koff, mouse P-selectin) came out at 0.008 s⁻¹; at human P-selectin (Biacore observed rate constant) it was 0.0069 s⁻¹. Further, the kon on mouse P-selectin (read-out: kon, mouse P-selectin) is 49000 M⁻¹ s⁻¹; on human P-selectin (Biacore observed rate constant), 310000 M⁻¹ s⁻¹. For the same molecule, the pKd at human P-selectin (biotinylated GS(n)P-6 captured on streptavidin chip, P-sel-Ig 2.5 to 60 μg/mL, read-out: Dissociation constant (Kd) to human P-selectin) was 7.66. Also, the pIC50 in assay [2] (human U-937 cells, GSnP-6 0-30 μM, read-out: IC50, P-selectin dependent interactions, human U-937 cells) was roughly 5.10; in assay [2] (human peripheral blood monocytes, read-out: IC50, P-selectin dependent interactions, human monocytes) it was roughly 4.52; in assay [2] (human peripheral blood neutrophils (PMN), read-out: IC50, P-selectin dependent interactions, human PMN), roughly 4.52; in assay [3] it was roughly 4.82.
